Test results taken from US20260088124A1, “TRANSCRIPTOMIC CLOCKS OF BIOLOGICAL AGE AND LIFESPAN” (The Brigham and Women's Hospital, Inc., priority 2022, published 2026).

Key:
[1] = tested on: 25-month-old C57BL/6JNia mice; assay: Survival study of old mice with compound added to the diet; format: in vivo, mouse; conditions: compound added to diet from 25 months of age; log-rank p-value <0.05; FIGS. 6F-H
young UM-HET3 male mice = assay: Transcriptomic clock of expected maximum lifespan applied to liver and kidney of mice given compounds for 1 month; format: in vivo, mouse; conditions: 1 month treatment, data pooled across tissues, adjusted p-value <0.05, FIG. 6E
Excerpt: To examine if longevity of rodents can be predicted based on gene expression data, we used 1,030 liver samples of mice and rats with known maximum lifespan to construct transcriptomic clock of expected lifespan.
To test if the constructed clock can be used to identify new longevity interventions, we applied it to the liver and kidney samples obtained from young UM-HET3 male mice subjected to 25 different compounds for 1 month together with age-matched controls. These compounds were chosen using a CMAP platform^30 and gene expression signatures of longevity identified in our previous studies^31.

mouse tissues = assay: Change of biological age (tAge), lifespan-adjusted multi-tissue transcriptomic clock applied to RNAseq datasets of treated mice (ClockBase); format: in vivo; conditions: for effect on biological age (tAge) versus age-matched control mice: statistically significant effect on tAge, FIG. 6A
Excerpt: Preprocessing of the data prior to applying the clock included filtering of low-expressed genes using soft threshold (genes with less than 5 reads in more than 80% of samples were removed), mapping of gene IDs to the mouse Entrez IDs, RLE normalization (for RNA-seq data), log-transformation, scaling and ranking/YuGene transformation (optionally, for the corresponding clock models). Missing values corresponding to the clock genes not detected in the data were imputed with the average values precalculated during the training of the clock model.
Preprocessed gene expression profiles were used as an input for the clock, and tAges were returned by the model as an output. Differences between tAges of control and treated groups were assessed using linear regression model (for OSKM reprogramming datasets) and independent t-tests (for other applications). When multiple comparisons were assessed, obtained p-values were adjusted with Benjamini-Hochberg method.
To discover candidate interventions that slow down biological aging and extend mammalian lifespan and healthspan, we utilized ClockBase^25 and processed 1,349 publicly available RNAseq datasets corresponding to mouse tissues exposed to various pharmacological, dietary and genetic interventions. For every intervention, we used gene expression data to calculate tAges of subjected mice and compared them with tAges of age-matched control mice. […] In addition to the well-known lifespan-extending interventions, such as rapamycin, they included β3-adrenoceptor agonist CL 316,243^26,27 and the cardiac glycoside ouabain^28.

30-month-old mice = assay: Healthspan of old mice (gait speed, frailty index); format: in vivo, mouse
aged rodents = conditions: cited from earlier work
[2] = cited from earlier work

Molecule	predicted effect on expected (maximum) lifespan according to the transcriptomic longevity clock (young UM-HET3 male mice)	effect on biological age (tAge) versus age-matched control mice (mouse tissues)	further results
COc1ccc(-c2ccc3c(N4CCOC[C@@H]4C)nc(N4CCOC[C@@H]4C)nc3n2)cc1CO [AZD-8055]	predicted to be beneficial for mouse longevity		lifespan of old male mice (survival) [1]: significantly extended lifespan
C[C@H](Cc1ccc2c(c1)OC(C(=O)[O-])(C(=O)[O-])O2)NC[C@H](O)c1cccc(Cl)c1.[Na+].[Na+] [CL 316,243]		decrease in biological age	
COc1ccc(-c2ccc3c(N4CCOCC4)nc(N4C[C@@H](C)O[C@@H](C)C4)nc3n2)cc1CO [KU-0063794]	predicted to be beneficial for mouse longevity		lifespan of old male mice (survival) [1]: significantly extended lifespan; frailty index (30-month-old mice): decreased; gait speed (30-month-old mice): improved
CCCCCCCCCCCCCCCC(=O)OC[C@H](O)[C@H]1OC(=O)C(O)=C1O [ascorbyl-palmitate]	predicted to be beneficial for mouse longevity		
C[C@@H]1O[C@@H](O[C@H]2C[C@@H](O)[C@]3(CO)[C@H]4[C@H](O)C[C@]5(C)[C@@H](C6=CC(=O)OC6)CC[C@]5(O)[C@@H]4CC[C@]3(O)C2)[C@H](O)[C@H](O)[C@H]1O [ouabain]		decrease in biological age	physical function of aged rodents (aged rodents): improve physical function; reduction of biological age (mouse tissues; 3-month treatment, 24-month-old mice, liver, FIG. 6B): ~20%; senolytic activity [2]: exhibit senolytic activity
Cc1onc(-c2ccccc2)c1-c1ccc(S(N)(=O)=O)cc1 [valdecoxib]	predicted to be beneficial for mouse longevity		
interleukin 6: interleukin 6 injection		increase of biological age	
